Source: patent EP0923292B1, “IMPROVED METHOD FOR SYSTEMIC ADMINISTRATION OF 2,4-DIENOIC ACID-TYPE INSECTICIDES TO TERRESTRIAL MAMMALS” (priority 1996, dated 1998)

Test: Concentration of (S)-methoprene in dog blood following oral administration (HPLC)
Assay type: in vivo, dogs
Conditions: random-bred, whole blood, 50 mg/kg
From the text: Twelve random-bred adult dogs of various sex and medium hair coat were selected based on hair coat, health, and individual habits. The twelve dogs were grouped into two groups of six dogs each. Dog weights ranged from 22.5 kg to 35.0 kg, and the various weights and each sex were represented in each group. The dogs received a measured amount of Science Diet maintenance dog food daily and water was available. The two groups of dogs were housed separately. The dogs of Group 1 were not given any treatments, whereas those of Group 2 were each given 50 mg/kg of technical (S)-methoprene one time only at the start of the study (Day 0).
Blood samples were taken periodically by drawing the samples into 10 cc disposable syringes and transferring them to labeled 5 mL heparinized EDTA vacutainers treated with […] of paraoxon solution at a concentration of 1 x 10^-2 M. The blood samples were frozen until ready for analysis. Hair samples were clipped from the dogs on the same days that blood samples were taken, then placed in labeled freezer jars with aluminum foil seals, and frozen.
To analyze the blood samples, the samples were extracted three times with methyl t-butyl ether, evaporated, reconstituted in 1 mL of methanol, and analyzed by HPLC as in the hair analyses.

Which concentration at 1 day (Dog #60, oral 50 mg/kg one time on Day 0, day 1) does the source give for `COC(C)(C)CCC[C@H](C)C/C=C/C(C)=C/C(=O)OC(C)C` [(S)-Methoprene, 1-isopropyl (E,E)-11-methoxy-3,7,11-trimethyl dodecadi-2,4-enoate] here?
The concentration at 1 day was 117 ng/g.

What about the concentration at 3 day (Dog #60, oral 50 mg/kg one time on Day 0, day 3) of the same molecule?
Its concentration at 3 day is 36 ng/g.

And the concentration at 1 day (Dog #98, oral 50 mg/kg one time on Day 0, day 1)?
Its concentration at 1 day is 97.2 ng/g.

What about the concentration at 1 day (Dog #528, oral 50 mg/kg one time on Day 0, day 1) of the same molecule?
Its concentration at 1 day is 165 ng/g.

What about the concentration at 3 day (Dog #528, oral 50 mg/kg one time on Day 0, day 3) of the same molecule?
Its concentration at 3 day is 63.6 ng/g.

And the concentration at 1 day (Dog #529, oral 50 mg/kg one time on Day 0, day 1)?
Its concentration at 1 day is 172 ng/g.

And the concentration at 3 day (Dog #529, oral 50 mg/kg one time on Day 0, day 3)?
Its concentration at 3 day is 52.1 ng/g.

And the concentration at 7 day (Dog #529, oral 50 mg/kg one time on Day 0, day 7)?
Its concentration at 7 day is 55.7 ng/g.

And the concentration at 1 day (Dog #534, oral 50 mg/kg one time on Day 0, day 1)?
Its concentration at 1 day is 146 ng/g.

And the concentration at 3 day (Dog #534, oral 50 mg/kg one time on Day 0, day 3)?
Its concentration at 3 day is 94.2 ng/g.

What about the concentration at 5 day (Dog #534, oral 50 mg/kg one time on Day 0, day 5) of the same molecule?
The concentration at 5 day was 66.8 ng/g.

And the concentration at 1 day (Dog #535, oral 50 mg/kg one time on Day 0, day 1)?
Its concentration at 1 day is 239 ng/g.

What about the concentration at 3 day (Dog #535, oral 50 mg/kg one time on Day 0, day 3) of the same molecule?
The concentration at 3 day was 93.3 ng/g.

What about the concentration at 5 day (Dog #535, oral 50 mg/kg one time on Day 0, day 5) of the same molecule?
Its concentration at 5 day is 47.7 ng/g.
